# What was measured:
# [1] = test system: gastric epithelial cell mitochondria; assay: Mitochondrial GFP expression in gastric epithelium after ulcer induction (confocal microscopy, in vivo study); parameters: species or system Sprague Dawley rats; settings: both methods, three doses
# Description: (§1) The study was carried out on 90 male Sprague Dawley rats (180-220 g) randomly subdivided into 9 groups (10 animals per group): • Group 1 - intact rats (saline solution) • Group 2 - modeled ulcer + saline solution • Group 3 (6 subgroups) - modeled ulcer + H-Glu-Asp-Gly-OH • Group 4 - modeled ulcer + Klacid antibiotic
# (§2) Ulcer was modeled by three-time administration (in 4 hours) in the rat stomach of cysteamine-HCL (Aldrich, Milwannee, WI) by means of a probe in the dose of 25 mg per 100 g of body weight. The ulcer, approximately 28 mm^2 in size, appeared at the boundary between antral and fundal segments of the stomach 12 hours after the last administration. Simultaneously with the first administration of cysteamine-HCL a Helicobacter pylori culture (Curtin Matheson Scientific Inc, strain Cag J117, 100 microbial cells) was administered in the rat stomach through the same probe.
# (§3) A means on the basis of the pharmaceutical composition comprising the studied peptide H-Glu-Asp-Gly-OH was administered subcutaneously in the dose of 1 µg per kg of animal body weight (group 3a), 2,5 µg per kg of body weight (group 3b) and 10 µg per kg of body weight (group 3c) in 0,5 ml of saline solution daily, for 5 days from the occurrence of the stomach ulcer.
# The means on the basis of the pharmaceutical composition comprising the studied peptide H-Glu-Asp-Gly-OH was administered intragastrically (through a probe) in the dose of 1 µg per kg of animal body weight (group 3d), 2,5 µg per kg of body weight (group 3e) and 10 µg per kg of body weight (group 3f) in 0,5 ml of saline solution daily, for 5 days from the occurrence of the stomach ulcer. […]
# The status of isolated mitochondria was assessed using immunofluorescent confocal laser microscopy. […]
# Confocal microscopy of mitochondria with optical density evaluation was carried out in an inverted confocal microscope Olympus Fluoview CM FV300-IX70 using an apochromatic lens 606 UPlan (Olympus). A 488 nm excitation wave of argon laser was used in each chamber to specify mito-GFP fluorescence that verifies the structure of mitochondria.
# [2] = test system: modeled ulcer; assay: Morphology study of the induced gastric ulcer (cysteamine-HCL + Helicobacter pylori); assay type: in vivo, Sprague Dawley rats
# Description: as §1, §2, §3
# The means on the basis of the pharmaceutical composition comprising the studied peptide H-Glu-Asp-Gly-OH was administered intragastrically (through a probe) in the dose of 1 µg per kg of animal body weight (group 3d), 2,5 µg per kg of body weight (group 3e) and 10 µg per kg of body weight (group 3f) in 0,5 ml of saline solution daily, for 5 days from the occurrence of the stomach ulcer.
# Antibiotic Klacid (clarithromycin, Abbott) was administered intramuscularly in the dose of 10 mg in 1 ml of saline solution daily for 5 days from the occurrence of the stomach ulcer.
# Material for study was taken from ulcer edge on the 7th day (for western blot assay and polymerase chain reaction in real time - RT-PCR), as well as on the 7th, 15th and 21st day for morphology study and confocal microscopy.
# For a morphology study, pieces of gastric mucous membrane from the ulcer edge were fixed in 10% neutral formalin (pH 7.2), then the material was dried out in a Leica TP1020 automatic station (Leica) and covered with paraffin. 5 µm thick paraffin slices were placed on object plates covered with a poly-L-lysine film (Sigma). For a visual study the slices were stained with hematoxylin and eosin, as well as with picrofuxin by the van Gison method.
substance,measurement,setting,value
glutamyl-aspartyl-glycine [H-Glu-Asp-Gly-OH],"mitochondrial GFP expression (optical density), 7th day","[1]; 7th day after ulcer induction, intact 3.12±0.22, ulcer 0.54±0.02",2.86±0.21 conv. units
same,"mitochondrial GFP expression (optical density), 15th day","[1]; 15th day after ulcer induction, intact 3.17±0.18, ulcer 0.87±0.04",3.03±0.16 conv. units
same,"mitochondrial GFP expression (optical density), 21st day","[1]; 21st day after ulcer induction, intact 3.19±0.18, ulcer 1.67±0.09",3.16±0.18 conv. units
same,"ulcer pathomorphosis, 7th day","[2]; 7th day after ulcer induction, treatment daily for 5 days, peptide 1, 2,5, 10 µg/kg subcutaneously or intragastrically, Klacid 10 mg intramuscularly",a decrease both in the area of the ulcerous lesion and in its depth was observed
same,"ulcer pathomorphosis, 15th day","[2]; 15th day after ulcer induction, treatment daily for 5 days, peptide 1, 2,5, 10 µg/kg subcutaneously or intragastrically, Klacid 10 mg intramuscularly",a significant decrease in ulcerous lesion area and depth was observed
same,"ulcer pathomorphosis, 21st day","[2]; 21st day after ulcer induction, treatment daily for 5 days, peptide both methods of administration and three dosages, Klacid 10 mg intramuscularly",no ulcerous lesions were macroscopically observed
same,pathomorphosis of an induced gastric ulcer (Fig. 12 C),"[2]; 21st day, peptide dose 2,5 µg/kg",complete epithelization of the ulcer
same,delay of epithelialization of the ulcerous lesion compared to higher doses,"[2]; dose 1,0 µg/kg (Groups 3a and 3d) versus 2,5 µg/kg and 10 µg/kg",2 to 3 days
